# Laboratory results as given in the supplement of paper PMC10307832.
# Columns and labels:
# Assay in all cases: relative viability (nuclei count vs DMSO), 5 days (fraction); higher = more cells survive
# Afatinib + Palbociclib = compound: CN(C)C/C=C/C(=O)Nc1cc2c(Nc3ccc(F)c(Cl)c3)ncnc2cc1O[C@H]1CCOC1 [Afatinib] + CC(=O)c1c(C)c2cnc(Nc3ccc(N4CCNCC4)cn3)nc2n(C2CCCC2)c1=O [Palbociclib] (partner 0.5 µM)
# In short: (§1)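 Relative viability is defined as nuclei in treated wells over nuclei in vehicle wells. Duplicate plates were run and medians reported. Lung cancer cell lines in 1536-well plates were dosed by pin tool one day after seeding, with one drug or with a fixed anchor-drug dose plus five library-drug doses (not always all listed) in √10 steps, and nuclei were counted after 5 days.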
# Afatinib + Luminespib = compound: CN(C)C/C=C/C(=O)Nc1cc2c(Nc3ccc(F)c(Cl)c3)ncnc2cc1O[C@H]1CCOC1 [Afatinib] + CCNC(=O)c1noc(-c2cc(C(C)C)c(O)cc2O)c1-c1ccc(CN2CCOCC2)cc1 [Luminespib] (partner 0.01 µM)
# In short: as §1
# Afatinib + OSI-027 = compound: CN(C)C/C=C/C(=O)Nc1cc2c(Nc3ccc(F)c(Cl)c3)ncnc2cc1O[C@H]1CCOC1 [Afatinib] + COc1cccc2cc(-c3nc([C@H]4CC[C@H](C(=O)O)CC4)n4ncnc(N)c34)[nH]c12 [OSI-027] (partner 0.5 µM)
# In short: as §1
# Afatinib + Pictilisib = compound: CN(C)C/C=C/C(=O)Nc1cc2c(Nc3ccc(F)c(Cl)c3)ncnc2cc1O[C@H]1CCOC1 [Afatinib] + CS(=O)(=O)N1CCN(Cc2cc3nc(-c4cccc5[nH]ncc45)nc(N4CCOCC4)c3s2)CC1 [Pictilisib] (partner 1 µM)
# In short: as §1
Cell Line,relative viability (Afatinib + Palbociclib; first compound 0.005 µM),relative viability (Afatinib + Palbociclib; first compound 0.01581 µM),relative viability (Afatinib + Palbociclib; first compound 0.05 µM),relative viability (Afatinib + Palbociclib; first compound 0.1581 µM),relative viability (Afatinib + Palbociclib; first compound 0.5 µM),relative viability (Afatinib + Luminespib; first compound 0.005 µM),relative viability (Afatinib + Luminespib; first compound 0.01581 µM),relative viability (Afatinib + Luminespib; first compound 0.05 µM),relative viability (Afatinib + Luminespib; first compound 0.1581 µM),relative viability (Afatinib + Luminespib; first compound 0.5 µM),relative viability (Afatinib + OSI-027; first compound 0.005 µM),relative viability (Afatinib + OSI-027; first compound 0.01581 µM),relative viability (Afatinib + OSI-027; first compound 0.05 µM),relative viability (Afatinib + OSI-027; first compound 0.1581 µM),relative viability (Afatinib + OSI-027; first compound 0.5 µM),relative viability (Afatinib + Pictilisib; first compound 0.005 µM),relative viability (Afatinib + Pictilisib; first compound 0.01581 µM),relative viability (Afatinib + Pictilisib; first compound 0.05 µM),relative viability (Afatinib + Pictilisib; first compound 0.1581 µM),relative viability (Afatinib + Pictilisib; first compound 0.5 µM)
SK-LU-1,0.355,0.416,0.413,0.396,0.4,0.19,0.206,0.233,0.193,0.193,0.389,0.415,0.327,0.318,0.352,0.713,0.537,0.561,0.564,0.531
NCI-H322M,0.467,0.434,0.394,0.358,0.378,0.705,0.566,0.443,0.496,0.405,0.511,0.422,0.463,0.356,0.397,0.441,0.396,0.351,0.327,0.279
EKVX,0.317,0.265,0.188,0.147,0.141,0.714,0.858,0.58,0.191,0.298,0.565,0.509,0.438,0.149,0.231,0.391,0.346,0.203,0.118,0.104
NCI-H1734,0.369,0.34,0.298,0.339,0.319,0.209,0.225,0.196,0.197,0.19,0.671,0.624,0.587,0.57,0.511,0.479,0.467,0.486,0.438,0.416
